Source: patent US8101760B2, “Glucocorticoid receptor modulator and methods of use” (Eli Lilly and Company, priority 2007, dated 2012)
Read-outs that look alike come from different tables or passages of the source.

Legend:
[1] = biological target: T1, human glucocorticoid receptor (GR) (Homo sapiens, UniProt P04150); assay: Nuclear hormone receptor functional modulation assay (GRE-luciferase, HEK293), GR; type: cell-based
T1 construct: expressed in transfected cells; host or cells: HEK293, transient transfection (Fugene), CMV promoter plasmid
T1 sequence (P04150 1-777): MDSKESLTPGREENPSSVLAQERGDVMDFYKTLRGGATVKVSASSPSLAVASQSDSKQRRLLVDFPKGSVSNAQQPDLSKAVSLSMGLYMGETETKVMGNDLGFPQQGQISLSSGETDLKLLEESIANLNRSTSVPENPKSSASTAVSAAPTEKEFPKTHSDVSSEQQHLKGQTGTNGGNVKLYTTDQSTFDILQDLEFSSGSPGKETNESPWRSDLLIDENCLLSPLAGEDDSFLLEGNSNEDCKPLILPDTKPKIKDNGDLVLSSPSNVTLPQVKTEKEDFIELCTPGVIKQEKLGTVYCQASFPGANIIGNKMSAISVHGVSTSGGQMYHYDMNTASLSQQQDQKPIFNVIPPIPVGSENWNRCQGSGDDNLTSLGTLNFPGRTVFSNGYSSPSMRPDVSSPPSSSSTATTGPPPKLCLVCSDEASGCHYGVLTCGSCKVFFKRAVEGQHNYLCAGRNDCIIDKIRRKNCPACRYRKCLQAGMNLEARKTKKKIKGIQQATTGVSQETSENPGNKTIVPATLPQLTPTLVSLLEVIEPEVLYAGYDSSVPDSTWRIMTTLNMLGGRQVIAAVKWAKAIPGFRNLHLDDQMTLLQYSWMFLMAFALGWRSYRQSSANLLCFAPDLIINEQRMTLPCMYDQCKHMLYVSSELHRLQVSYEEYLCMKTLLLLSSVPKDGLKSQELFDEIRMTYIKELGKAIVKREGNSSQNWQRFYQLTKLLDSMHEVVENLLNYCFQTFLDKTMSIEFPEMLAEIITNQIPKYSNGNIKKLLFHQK
Excerpt: The solvents, reagents, and ligands employed in the functional assay are readily available from commercial sources, or can be prepared by one of ordinary skill in the art.
Human embryonic kidney HEK293 cells are transfected with steroid hormone receptor and reporter gene plasmids using Fugene™ (Roche Diganostics) transfection reagent. Briefly, the reporter plasmid containing two copies of probasin ARE (androgen response element 5′GGTTCTTGGAGTACT3′ (SEQ ID NO:1)) and TK(thymidine kinase) promoter upstream of the luciferase reporter cDNA, is transfected into HEK293 cells with a plasmid constitutively expressing human androgen receptor (AR) using viral CMV(cytomegalovirus) promoter. The reporter plasmid containing two copies of GRE (glucocorticoid response element 5′TGTACAGGATGTTCT′3 (SEQ ID NO:2)) and TK promoter upstream of the luciferase reporter cDNA is transfected with a plasmid constitutively expressing either human glucocorticoid receptor (GR), human mineralocorticoid receptor (MR), or human progesterone receptor (PR) using viral CMV promoter. Cells are transfected in T150 cm flasks in DMEM media with 5% charcoal-stripped Fetal Bovine Serum (FBS). […] In the antagonist mode for the assays, low concentrations of agonist for each respective receptor are added to the media (0.25 nM dexamethasone for GR, 0.3 nM of methyltrienolone for AR, 0.05 nM of promegestone for PR and 0.05 nM aldosterone for MR), and the ability of test compound to antagonize the agonist response is determined. After 24 hours of incubation with test compounds, cells are lysed and luciferase activity is determined using standard techniques.
Data are fitted to a four parameter-fit logistic curve fit to determine EC50 values. […] IC50 values may be determined similarly using antagonist mode assay data. Percent inhibitions may also be determined relative to the response in the presence of agonist alone, as described above.

[2] = test system: LPS-stimulated TNF-α production in PMA-differentiated U937 cells; assay: GR-mediated transrepression: LPS-stimulated TNF-α production in PMA-differentiated U937 cells; type: cell-based; details: Homo sapiens, U-937, mean of 6 determinations, read-out: EC50, inhibition of TNF-α expression
Experimental: 2. LPS-Stimulated TNF-α Production in PMA-Differentiated U937 Cells:
Human U937 pre-monocytic cells (ATCC Catalog #CRL-1593.2) are grown in complete RPMI 1640 medium (ATCC Catalog #30-2001) containing 10% fetal bovine serum (FBS). To allow monocytes to differentiate to adherent macrophages, U937 cells are washed in PBS (Calcium, magnesium-free) and resuspended in fresh RPMI medium containing 20 nM phorbol 12-myristate-13-acetate (PMA) overnight. After differentiation, test compounds are added to the cells in the 96-well plate at various concentrations ranging from about […] to 4.64 μM. 1-hour post treatment with test compound, LPS is added at final concentration of 100 ng/mL and the reaction mixture is incubated overnight.
TNF-α production is measured with an ELISA kit (R&D Systems, Inc., Minneapolis, Minn., U.S.A.) using standard techniques. Briefly, 25 μL cell-free supernatant is transferred to another 96-well plate and 75 μL of assay buffer is added. TNF-α is quantified by reading absorbance at 450 nm. A standard curve of absorbance versus TNF-α concentration is constructed and used to determine the concentration of TNF-α in experimental samples.

[3] = test system: carrageenan-induced paw edema; assay: Carrageenan-induced paw edema (CPE) model; type: in vivo, rat; details: rat; for ED50: oral gavage 2 h before carrageenan, 3 h after injection, mean of 5
Excerpt: Carrageenans are a group of polysaccharides which can induce an acute inflammatory response in animals. Cardinal signs of inflammation including edema, hyperalgesia and erythema are developed in the injection site immediately following injection. The CPE model (Winter et al., Proc. Soc. Exp. Biol. Med. 111, 544-547, 1962) is a recognized model of inflammation and can be used to evaluate the antinflammatory effects of glucocorticoid receptor ligands.
To evaluate the anti-inflammatory effects of Compound (I), the Compound (I) is formulated in a vehicle comprising 0.5% carboxymethyl cellulose and 0.25% Tween 80 then administered orally via gavage to male Sprague-Dawley rats (180-200 g) (Harlan Industries, Indianapolis, Ind.). For comparison, prednisolone is administered orally in the same vehicle. Two hours later, 1% carrageenan in 50 μL of 0.9% pyrogen free saline is injected into the subplantar regions of the right hind paw. Rats are euthanized by CO2 at 3 hours after the carrageenan injection. Paws are removed then weighed using a microbalance. Paws are then immediately immersed into liquid nitrogen until frozen. Frozen paws are dissected by making several cuts on the paw surface then centrifuged to extract the exudates. Exudate levels of IL-1β, a cytokine generated during the inflammatory response, is then measured by ELISA (R&D Systems, Inc., Catalog No. RLB00) using standard techniques. Total paw protein is also measured using a protein assay kit (Pierce Biotechnology, Inc., Rockford, Ill., U.S.A., Catalog No. 1856210) and the absolute level of IL-1β is normalized to yield a concentration value of ng IL-1β/mg total protein.

- Emax ([1]; HEK293, partial agonist activity, read-out: maximal efficacy in inducing GR/GRE-mediated gene transcription (transactivation)): < 50%
- EC50 ([1]; agonist mode, activating transcription, mean of 3): 1.9 nM
- GR % Eff. ([1]; percent efficacy at 10 μM relative to 100 nM dexamethasone, mean of 3): 45.7%
- EC50 [2]: ~30 nM
SMILES: CC/C(=C1\c2ccc(Cl)cc2OCc2ncccc21)c1cccc(NS(C)(=O)=O)c1 [Compound (I), (E)-N-{3-[1-(8-Chloro-11H-10-oxa-1-aza-dibenzo[a,d]cyclohepten-5-ylidene)-propyl]-phenyl}-methanesulfonamide]
- inhibition of carrageenan induced paw edema ([3]; oral administration, in words): dose dependently inhibits
- production of interleukin-1-beta (IL-1β) ([3]; oral administration, in words): inhibits production
- ED50 ([3]; read-out: ED50, inhibition of carrageenan induced paw weight gain): ~1.2 mg/kg
- ED50 ([3]; read-out: ED50, reduction of paw exudate levels of IL-1β): ~0.31 mg/kg
